The values below come from ChEMBL document CHEMBL5257106, “Design, synthesis, and biological evaluation of novel HDAC inhibitors with a 3-(benzazol-2-yl)quinoxaline framework” (Bioorg Med Chem Lett, 2023).

For test [1], the target named is T1, Histone deacetylase 11 (Homo sapiens, UniProt Q96DB2).
T1 sequence (Q96DB2 whole entry): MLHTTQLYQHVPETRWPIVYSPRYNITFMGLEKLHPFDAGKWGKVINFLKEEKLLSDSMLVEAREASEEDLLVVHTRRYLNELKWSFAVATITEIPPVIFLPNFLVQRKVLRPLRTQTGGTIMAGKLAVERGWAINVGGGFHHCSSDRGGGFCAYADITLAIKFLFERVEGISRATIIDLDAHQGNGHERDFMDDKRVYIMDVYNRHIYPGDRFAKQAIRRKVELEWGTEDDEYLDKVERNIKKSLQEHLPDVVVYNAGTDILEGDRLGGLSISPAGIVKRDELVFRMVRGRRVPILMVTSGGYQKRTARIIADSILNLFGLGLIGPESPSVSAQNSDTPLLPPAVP
Put plainly: Inhibition of HDAC11 (unknown origin).

The subject of test [2] is HCT-116. Briefly: Induction of cell cycle arrest in human HCT-116 assessed as S phase cells at 0.5 uM incubated for 48 hrs by flow cytometric analysis (reference value: 12.79%). It counts as functional. For orientation: In flow cytometry, cells or beads pass a laser one at a time.
The target of test [3] is T2, Protein deacetylase HDAC6 (Homo sapiens, UniProt Q9UBN7).
T2 sequence (Q9UBN7 whole entry): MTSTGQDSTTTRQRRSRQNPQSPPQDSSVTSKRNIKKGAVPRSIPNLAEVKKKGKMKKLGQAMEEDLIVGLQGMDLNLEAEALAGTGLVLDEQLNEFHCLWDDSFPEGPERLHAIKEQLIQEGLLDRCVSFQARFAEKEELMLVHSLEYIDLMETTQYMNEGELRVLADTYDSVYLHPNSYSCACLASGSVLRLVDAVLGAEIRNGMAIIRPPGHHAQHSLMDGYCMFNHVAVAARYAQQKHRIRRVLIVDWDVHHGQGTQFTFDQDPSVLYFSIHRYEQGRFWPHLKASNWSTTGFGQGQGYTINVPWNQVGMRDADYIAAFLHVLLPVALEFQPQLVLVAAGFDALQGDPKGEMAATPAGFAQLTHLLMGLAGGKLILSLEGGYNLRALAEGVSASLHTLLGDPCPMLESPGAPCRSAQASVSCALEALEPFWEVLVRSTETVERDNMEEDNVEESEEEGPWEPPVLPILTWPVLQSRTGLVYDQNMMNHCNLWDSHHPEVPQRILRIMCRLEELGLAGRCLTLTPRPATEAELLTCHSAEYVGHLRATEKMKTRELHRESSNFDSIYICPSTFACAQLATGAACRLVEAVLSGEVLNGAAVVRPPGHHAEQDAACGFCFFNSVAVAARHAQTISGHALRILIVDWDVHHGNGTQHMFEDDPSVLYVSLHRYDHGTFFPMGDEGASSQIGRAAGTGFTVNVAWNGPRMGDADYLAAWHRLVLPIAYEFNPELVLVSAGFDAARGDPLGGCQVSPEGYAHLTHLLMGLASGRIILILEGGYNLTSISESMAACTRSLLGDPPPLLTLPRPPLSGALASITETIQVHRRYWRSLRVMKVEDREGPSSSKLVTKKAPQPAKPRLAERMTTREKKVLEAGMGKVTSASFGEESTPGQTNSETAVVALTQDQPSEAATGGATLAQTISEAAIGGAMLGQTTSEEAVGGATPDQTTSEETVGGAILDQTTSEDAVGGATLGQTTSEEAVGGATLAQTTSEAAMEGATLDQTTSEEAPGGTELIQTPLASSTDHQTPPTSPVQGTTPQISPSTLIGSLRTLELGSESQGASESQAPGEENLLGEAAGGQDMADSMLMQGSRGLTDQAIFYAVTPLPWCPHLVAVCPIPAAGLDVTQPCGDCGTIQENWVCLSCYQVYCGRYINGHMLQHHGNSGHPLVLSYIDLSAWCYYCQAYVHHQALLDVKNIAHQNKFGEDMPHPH
Put plainly: Inhibition of HDAC6 (unknown origin).

Test [4] has as its system RS4-11. Put plainly: Potency index, ratio of SAHA IC50 to test compound IC50 for antiproliferative activity against human RS4-11 cells assessed as inhibition of cell growth by MTT assay. It counts as functional. On the technique in general: Tetrazolium dyes change colour on reduction, which living cells bring about.
Test [5] has as its target Histone deacetylase 2 (Homo sapiens, UniProt Q92769). Briefly: Inhibition of HDAC2 (unknown origin).
In test [6] the test system is HCT-116. Briefly: Induction of cell cycle arrest in human HCT-116 assessed as S phase cells at 1 uM incubated for 48 hrs by flow cytometric analysis (reference value: 12.79%). Type of test: functional.
Test [7] deals with HCT-116. Briefly: Induction of apoptosis in human HCT-116 cells assessed as increase in Bax protein expression at 0.5 to 1 uM incubated for 24 hrs by Western blot analysis. It counts as functional, cell-based. The conditions noted are these: dose 0.5-1 µM. In general terms: In western blotting, separated proteins are transferred to a membrane and probed.
In test [8] the test system is HCT-116. Put plainly: Induction of apoptosis in human HCT-116 cells assessed as late apoptotic cells at 0.5 uM incubated for 24 hrs by Annexin V-FITC/PI staining based flow cytometry analysis (reference value: 0.323%). Type of test: functional.
Test [9] deals with HCT-116. Briefly: Induction of apoptosis in human HCT-116 cells assessed as viable cells at 0.5 uM incubated for 24 hrs by Annexin V-FITC/PI staining based flow cytometry analysis (reference value: 93.2%). Type of test: functional. The conditions noted are these: read-out: Activity.
Test [10] deals with Histone deacetylase (Homo sapiens) (UniProt Q13547+O15379+Q9UBN7+Q92769+Q9UQL6+Q8WUI4+Q9BY41+Q96DB2+P56524+Q9UKV0+Q969S8). Briefly: Inhibition of HDAC in human HCT-116 cells assessed as increase in histone H3 acetylation incubated for 24 hrs by Western blot analysis. It counts as cell-based. The conditions noted are these: dose 0.5-1 µM.
Test [11] relates to HCT-116. Briefly: Induction of cell cycle arrest in human HCT-116 assessed as decrease in G0/G1 phase cells at 0.5 uM incubated for 48 hrs by flow cytometric analysis (reference value: 63.51%). It counts as functional. Set-up: scale not given: the % may be the effect or the level left.
Test [12] relates to HCT-116. Put plainly: Induction of apoptosis in human HCT-116 cells assessed as viable cells at 1 uM incubated for 24 hrs by Annexin V-FITC/PI staining based flow cytometry analysis (reference value: 93.2%). It counts as functional. The conditions noted are these: Homo sapiens, HCT-116, read-out: Activity.

Each structure is given as a SMILES string. Activity calls are given as the source filed them. No cut-off for these calls is given here.

Broadly, the IC50 is the midpoint of a concentration-inhibition curve.

Sequence of Histone deacetylase 2 (Q92769 whole entry): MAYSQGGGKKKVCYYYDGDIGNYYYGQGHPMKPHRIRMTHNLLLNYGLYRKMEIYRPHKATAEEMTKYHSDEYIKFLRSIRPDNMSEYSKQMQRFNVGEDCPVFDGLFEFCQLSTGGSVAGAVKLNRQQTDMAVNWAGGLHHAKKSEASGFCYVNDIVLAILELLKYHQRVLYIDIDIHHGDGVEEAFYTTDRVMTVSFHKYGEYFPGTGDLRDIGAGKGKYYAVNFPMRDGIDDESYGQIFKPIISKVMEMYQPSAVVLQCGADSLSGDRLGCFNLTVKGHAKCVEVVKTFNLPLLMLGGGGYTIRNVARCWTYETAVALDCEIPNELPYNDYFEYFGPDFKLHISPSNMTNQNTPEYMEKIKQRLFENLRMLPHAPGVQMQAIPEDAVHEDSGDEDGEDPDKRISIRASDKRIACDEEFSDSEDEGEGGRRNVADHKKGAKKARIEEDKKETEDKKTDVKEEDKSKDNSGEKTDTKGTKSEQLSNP

For `O=C(CCCCCCNc1nc2ccccc2nc1-c1nc2ccccc2o1)NO`, the IC50 was 110 nM in [1], 44.7 nM in [3] and 34.4 nM in test [5]. The Activity in test [2] was 11.65%; in test [6] it was 13.79%; in [8] it was 7.21%; in [11], 51.68%. Further, the “Ratio IC50” value in test [4] is 2. Moreover, the result in [7] was Active. Further, the viability at 0.5 µM in test [9] turned out to be 64.5%. In [10], the inhibition entry was “Dose-Dependent Effect”. Further, the viability at 1 µM in test [12] stood at 48.1%.
